For assay [1], the system named is Mycosphaerella graminicola; Anamorph: Septoria tritici; Bayer Code SEPTTR. As to the kind of experiment: Leaf blotch of wheat, foliar fungicide treatment, one day protectant (1DP) or three day curative (3DC). The note with it: Zymoseptoria tritici. Type of assay: in vivo, Septoria tritici on wheat plants (variety Yuma).
For assay [2], the system named is Venturia inaequalis; Bayer Code VENTIN. As to the kind of experiment: Apple scab. Type of assay: in vivo. Particulars: 24 h, % disease control rating, one day protectant; for pest or weed control at 25 ppm: read-out: VENTIN 1 DP 25 ppm; for pest or weed control at 75 ppm: read-out: VENTIN 1 DP 75 ppm.
For assay [3], the system named is Cercospora beticola; Bayer Code CERCBE. As to the kind of experiment: Leaf spot of sugar beets. Particulars: 24 h, % disease control rating, one day protectant; for pest or weed control at 25 ppm: read-out: CERCBE 1 DP 25 ppm; for pest or weed control at 75 ppm: read-out: CERCBE 1 DP 75 ppm. Type of assay: in vivo, Cercospora beticola on sugar beets (variety HH-88).

The mark [4] stands for this setting: 24 h, one day protectant (1DP), 25 ppm, percent disease control rating, read-out: SETTTR 1DP 25 ppm.
Setting [5] is: 24 h, one day protectant (1DP), percent disease control rating, read-out: SEPTTR 1DP 100 ppm.
Where [6] appears, read: 72 h, three day curative (3DC), 25 ppm, percent disease control rating, read-out: SEPTTR 3DC 25 ppm.
The mark [7] stands for this setting: 72 h, three day curative (3DC), percent disease control rating, read-out: SEPTTR 3DC 100 ppm.
The mark [8] stands for this setting: 24 h, one day protectant (1DP), 25 ppm, rating of percent disease control, read-out: SETTTR 1DP 25 ppm.
[9] abbreviates: 24 h, one day protectant (1DP), rating of percent disease control, read-out: SEPTTR 1DP 100 ppm.
Where [10] appears, read: 72 h, three day curative (3DC), 25 ppm, rating of percent disease control, read-out: SEPTTR 3DC 25 ppm.
Setting [11] is: 72 h, three day curative (3DC), rating of percent disease control, read-out: SEPTTR 3DC 100 ppm.
[12] abbreviates: 24 h, one day protectant (1DP), 25 ppm (first 1DP column), percent disease control rating, read-out: SETTTR 1DP 25 ppm.
Setting [13] is: 24 h, one day protectant (1DP), 25 ppm as printed (second 1DP column), percent disease control rating, read-out: SETTTR 1DP 25 ppm.

The structures appear in SMILES notation. Read-outs that look alike come from different tables or passages of the source.

Regarding `CC(Oc1ncc(F)c(N)n1)c1ccc(F)cc1` (centres unmarked) [Compound 3, 5-Fluoro-2-[1-(4-fluorophenyl)ethoxy]pyrimidin-4-ylamine], the values for the pest or weed control at 25 ppm in assay [1] (setting [4]), in assay [1] (setting [6]) and in assay [2] were 76 to 100%, 76 to 100% and 0 to 25%, respectively. The pest or weed control at 100 ppm in assay [1] (setting [5]) and in assay [1] (setting [7]) was 76 to 100% throughout. For the same compound, the pest or weed control at 75 ppm in assay [2] lay in the range of 76 to 100%.

In the case of `C/C(=N\Oc1ncc(F)c(N)n1)c1ccccc1` [Compound 4, 1-Phenyl-ethanone-O-(4-amino-5-fluoropyrimidin-2-yl)oxime], the pest or weed control at 25 ppm in assay [3], in assay [1] (setting [4]), in assay [1] (setting [6]) and in assay [2] was 76 to 100% throughout. Further, the pest or weed control at 75 ppm in assay [3] and in assay [2] was 76 to 100% in each case. Besides, the pest or weed control at 100 ppm in assay [1] (setting [5]) and in assay [1] (setting [7]) was 76 to 100% in each case.

For the compound `Nc1nc(OCc2cccs2)ncc1F` [Compound 5, 5-Fluoro-2-(thiophen-2-ylmethoxy)-pyrimidin-4-ylamine], the pest or weed control at 25 ppm in assay [1] (setting [4]), in assay [1] (setting [6]) and in assay [2] was 76 to 100% in each case. For the same compound, the pest or weed control at 100 ppm in assay [1] (setting [5]) and in assay [1] (setting [7]) was 76 to 100% in each case. The pest or weed control at 75 ppm in assay [2] was 76 to 100%.

With `CN1CCN(CNc2nc(OCc3ccc(F)cc3)ncc2F)CC1` [Compound 7, [5-Fluoro-2-(4-fluorobenzyloxy)pyrimidin-4-yl]-(4-methylpiperazin-1-ylmethyl)amine], the pest or weed control at 25 ppm fell in the range of 51 to 75% in assay [3], 76 to 100% in assay [1] (setting [4]), 76 to 100% in assay [1] (setting [6]) and 76 to 100% in assay [2]. Also, the results for the pest or weed control at 75 ppm in assay [3] and in assay [2] were 51 to 75% and 76 to 100%, respectively. For the same compound, the pest or weed control at 100 ppm in assay [1] (setting [5]) and in assay [1] (setting [7]) was 76 to 100% in each case.

As for `CCOC(=O)C(=O)Nc1nc(OCc2ccc(F)cc2)ncc1F` [Compound 11, N-[5-Fluoro-2-(4-fluorobenzyloxy)pyrimidin-4-yl]oxalamic acid ethyl ester], the pest or weed control at 25 ppm in assay [3] is 0 to 25%; in assay [1] (setting [4]), 76 to 100%; in assay [1] (setting [6]) it was 76 to 100%; in assay [2] it was 76 to 100%. Further, the pest or weed control at 75 ppm in assay [3] was in the range of 0 to 25%; in assay [2] it was 76 to 100%. In addition, the pest or weed control at 100 ppm in assay [1] (setting [5]) and in assay [1] (setting [7]) was 76 to 100% each time.

Consider `CN(C)/C=N/c1nc(OCc2ccc(F)cc2)ncc1F` [Compound 20, N-[5-Fluoro-2-(4-fluorobenzyloxy)pyrimidin-4-yl]-N,N dimethyl-formamidine], for which the pest or weed control at 25 ppm was in the range of 76 to 100% in assay [1] (setting [4]), 76 to 100% in assay [1] (setting [6]) and 51 to 75% in assay [2]. For the same compound, the pest or weed control at 100 ppm in assay [1] (setting [5]) and in assay [1] (setting [7]) was 76 to 100% throughout. Also, the pest or weed control at 75 ppm in assay [2] fell in the range of 76 to 100%.

In the case of `COc1cccc(COc2ncc(F)c(N)n2)c1` [Compound 35], the pest or weed control at 25 ppm in assay [1] (setting [4]), in assay [1] (setting [6]) and in assay [2] was 76 to 100% each time. Moreover, the pest or weed control at 100 ppm in assay [1] (setting [5]) and in assay [1] (setting [7]) was 76 to 100% in each case. Further, the pest or weed control at 75 ppm in assay [2] was 76 to 100%.

For the compound `Nc1nc(OCc2ccccc2)ncc1F` [Compound 46], the pest or weed control at 25 ppm in assay [1] (setting [4]), in assay [1] (setting [6]) and in assay [2] was 76 to 100% in each case. The pest or weed control at 100 ppm in assay [1] (setting [5]) and in assay [1] (setting [7]) was 76 to 100% in each case. Moreover, the pest or weed control at 75 ppm in assay [2] was 76 to 100%.

On to `CN(C)/C=N/c1nc(OCc2ccccc2)ncc1F` [Compound 209], for which the pest or weed control at 25 ppm in assay [1] (setting [8]) fell in the range of 76 to 100%; in assay [1] (setting [10]), 76 to 100%; in assay [2] it was 51 to 75%. Also, the pest or weed control at 100 ppm in assay [1] (setting [9]) and in assay [1] (setting [11]) was 76 to 100% in each case. Besides, the pest or weed control at 75 ppm in assay [2] is 76 to 100%.

For the compound `CCOC(=O)COc1ncc(F)c(N)n1` [Compound 221], in assay [3], the pest or weed control at 25 ppm fell in the range of 26 to 50% and the pest or weed control at 75 ppm was in the range of 51 to 75%. Also, in assay [2], the pest or weed control at 25 ppm lay within 0 to 25% and the pest or weed control at 75 ppm was 26 to 50%.

Turning to `Nc1nc(OCc2cccc(F)c2)ncc1F` [Compound 236], the pest or weed control at 25 ppm in assay [1] (setting [8]), in assay [1] (setting [10]) and in assay [2] was 76 to 100% in each case. The pest or weed control at 100 ppm in assay [1] (setting [9]) and in assay [1] (setting [11]) was 76 to 100% each time. The pest or weed control at 75 ppm in assay [2] is 76 to 100%.

For `Cc1ccccc1C(C)Oc1ncc(F)c(N)n1` (centres unmarked) [Compound 313], the pest or weed control at 25 ppm in assay [1] (setting [8]) was in the range of 76 to 100%; in assay [1] (setting [10]), 76 to 100%; in assay [2], 26 to 50%. Moreover, the pest or weed control at 100 ppm in assay [1] (setting [9]) and in assay [1] (setting [11]) was 76 to 100% each time. For the same compound, in assay [2], the pest or weed control at 75 ppm is 51 to 75%.

As to `Nc1nc(OCc2cc3ccccc3s2)ncc1F` [Compound 345], the pest or weed control at 25 ppm in assay [1] (setting [8]) fell in the range of 76 to 100%; in assay [1] (setting [10]) it was 76 to 100%; in assay [2] it was 51 to 75%. For the same compound, the pest or weed control at 100 ppm in assay [1] (setting [9]) and in assay [1] (setting [11]) was 76 to 100% each time. The pest or weed control at 75 ppm in assay [2] was 76 to 100%.

For the compound `Cc1cc(C)c(COc2ncc(F)c(/N=C/N(C)C)n2)c(C)c1` [Compound 347], the pest or weed control at 25 ppm in assay [1] (setting [8]), in assay [1] (setting [10]) and in assay [2] was 76 to 100% each time. Moreover, the pest or weed control at 100 ppm in assay [1] (setting [9]) and in assay [1] (setting [11]) was 76 to 100% throughout. The pest or weed control at 75 ppm in assay [2] is 26 to 50%.

As to `Cc1ccc(COc2ncc(F)c(/N=C/N(C)C)n2)cc1` [Compound 469], the pest or weed control at 25 ppm is 76 to 100% in assay [1] (setting [8]), 76 to 100% in assay [1] (setting [10]) and 51 to 75% in assay [2]. In addition, the pest or weed control at 100 ppm in assay [1] (setting [9]) and in assay [1] (setting [11]) was 76 to 100% each time. In addition, in assay [2], the pest or weed control at 75 ppm was in the range of 76 to 100%.

For `Cc1cc(C)c(COc2ncc(F)c(N)n2)c(C)c1` [Compound 510], the figures for the pest or weed control at 25 ppm in assay [1] (setting [8]), in assay [1] (setting [10]) and in assay [2] were 51 to 75%, 51 to 75% and 76 to 100%, respectively. Also, the pest or weed control at 100 ppm in assay [1] (setting [9]) and in assay [1] (setting [11]) was 76 to 100% in each case. Also, the pest or weed control at 75 ppm in assay [2] was in the range of 76 to 100%.

On to `COc1ccc(COc2ncc(F)c(N)n2)cc1` [Compound 734], for which the pest or weed control at 25 ppm in assay [1] (setting [8]), in assay [1] (setting [10]) and in assay [2] was 76 to 100% throughout. Moreover, the pest or weed control at 100 ppm in assay [1] (setting [9]) and in assay [1] (setting [11]) was 76 to 100% each time. Also, in assay [2], the pest or weed control at 75 ppm is 76 to 100%.

Consider `COc1ncc(F)c(N(NC(=O)c2ccc(Cl)cc2)C(=O)c2ccc(Cl)cc2)n1` [Compound 1128], for which the pest or weed control at 25 ppm in assay [1] (24 h, one day protectant (1DP), 25 ppm (first 1DP column), percent control rating, read-out: SETTTR 1DP 25 ppm) fell in the range of 0 to 25%; in assay [1] (24 h, one day protectant (1DP), 25 ppm as printed (second 1DP column), percent control rating, read-out: SETTTR 1DP 25 ppm), 0 to 25%; in assay [1] (72 h, three day curative (3DC), 25 ppm, percent control rating, read-out: SEPTTR 3DC 25 ppm), 0 to 25%. Also, the pest or weed control at 100 ppm in assay [1] (72 h, three day curative (3DC), percent control rating, read-out: SEPTTR 3DC 100 ppm) fell in the range of 0 to 25%.

In the case of `Cc1ccc(COc2ncc(F)c(NC#N)n2)cc1` [Compound 1130], the pest or weed control at 25 ppm in assay [1] (setting [12]) is 0 to 25%; in assay [1] (setting [13]), 0 to 25%; in assay [1] (setting [6]), 26 to 50%. The pest or weed control at 100 ppm in assay [1] (setting [7]) lay in the range of 0 to 25%.

`CCN(/C=N/c1nc(O)ncc1F)CC` [Compound 1131]: the pest or weed control at 25 ppm in assay [1] (setting [12]), in assay [1] (setting [13]) and in assay [1] (setting [6]) was 76 to 100% in each case. Moreover, the pest or weed control at 100 ppm in assay [1] (setting [7]) fell in the range of 76 to 100%.

Turning to `O=S(=O)(Cc1ccccc1)Nc1nc(O)ncc1F` [Compound 1132], the pest or weed control at 25 ppm was in the range of 51 to 75% in assay [1] (setting [12]), 51 to 75% in assay [1] (setting [13]) and 76 to 100% in assay [1] (setting [6]). For the same compound, the pest or weed control at 100 ppm in assay [1] (setting [7]) was 76 to 100%.

(Values after patent US9204653B2, “5-fluoro pyrimidine derivatives” (DOW AGROSCIENCES LLC, priority 2008, dated 2015).)
